Key:
Assay in all cases: relative viability (nuclei count vs DMSO), 5 days (fraction); higher = more cells survive
[1] = compound: O[C@@H](COc1cccc2ncccc12)CN1CCN([C@@H]2c3ccccc3[C@@H]3[C@H](c4ccccc42)C3(F)F)CC1 [Zosuquidar] + C[C@@H](Oc1cc(-c2cnn(C3CCNCC3)c2)cnc1N)c1c(Cl)ccc(F)c1Cl [Crizotinib] (partner 1 µM)
How it was run: (§1)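 Relative viability was taken as the ratio of nuclei in treated wells to nuclei in vehicle wells. Lung cancer cell lines in 1536-well plates received compounds by pin tool one day after seeding, either one drug alone or a fixed anchor-drug dose plus five library-drug doses (not always all listed) in √10 steps. Nuclei were counted on 4× images after 5 days of treatment, and values are medians of duplicate plates.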

[2] = compound: C1=CC(=CC=C1NC(=S)NNC2=C(C=C(C=C2[N+](=O)[O-])C(F)(F)F)[N+](=O)[O-])F [Kobe2602] + CS(=O)(=O)CCNCc1ccc(-c2ccc3ncnc(Nc4ccc(OCc5cccc(F)c5)c(Cl)c4)c3c2)o1 [Lapatinib] (partner 2 µM)
How it was run: as §1

[3] = compound: O[C@@H](COc1cccc2ncccc12)CN1CCN([C@@H]2c3ccccc3[C@@H]3[C@H](c4ccccc42)C3(F)F)CC1 [Zosuquidar] + CC(=O)c1c(C)c2cnc(Nc3ccc(N4CCNCC4)cn3)nc2n(C2CCCC2)c1=O [Palbociclib] (partner 0.5 µM)
How it was run: as §1

[4] = compound: O[C@@H](COc1cccc2ncccc12)CN1CCN([C@@H]2c3ccccc3[C@@H]3[C@H](c4ccccc42)C3(F)F)CC1 [Zosuquidar] + CC(=O)Nc1cccc(-n2c(=O)n(C3CC3)c(=O)c3c(Nc4ccc(I)cc4F)n(C)c(=O)c(C)c32)c1 [Trametinib] (partner 0.02 µM)
How it was run: as §1

Cell Line	relative viability ([1]; first compound 0.01 µM)	relative viability ([1]; first compound 0.03162 µM)	relative viability ([1]; first compound 0.1 µM)	relative viability ([1]; first compound 0.3162 µM)	relative viability ([1]; first compound 1 µM)	relative viability ([2]; first compound 0.2 µM)	relative viability ([2]; first compound 0.6325 µM)	relative viability ([2]; first compound 2 µM)	relative viability ([2]; first compound 6.325 µM)	relative viability ([2]; first compound 20 µM)	relative viability ([3]; first compound 0.01 µM)	relative viability ([3]; first compound 0.03162 µM)	relative viability ([3]; first compound 0.3162 µM)	relative viability ([3]; first compound 1 µM)	relative viability ([4]; first compound 0.01 µM)	relative viability ([4]; first compound 0.03162 µM)	relative viability ([4]; first compound 0.1 µM)	relative viability ([4]; first compound 0.3162 µM)	relative viability ([4]; first compound 1 µM)	relative viability ([3]; first compound 0.1 µM)
NCI-H1792	0.912	0.771	0.776	0.954	0.977	0.963	0.878	0.992	0.928	0.978	0.665	0.583	0.673	0.703	0.522	0.427	0.41	0.535	0.421	–
NCI-H2009	1.02	1.01	1.05	1.06	1.01	0.878	1.14	0.895	1.04	0.871	0.204	0.183	0.251	0.211	0.273	0.208	0.239	0.285	0.263	0.154
NCI-H2405	0.889	0.82	0.757	0.819	0.825	1.05	1.17	1.01	1.2	1.33	0.565	0.528	0.539	0.489	0.64	0.621	0.617	0.754	0.617	0.555
NCI-H1944	1.03	1.09	1.03	1.04	1.12	0.878	0.944	0.837	0.857	0.787	0.343	0.358	0.391	0.319	0.418	0.393	0.389	0.429	0.388	0.342
NCI-H322M	0.896	0.929	0.861	0.739	0.91	0.588	0.648	0.652	0.571	0.647	0.458	0.485	0.463	0.468	0.52	0.586	0.555	0.54	0.427	0.475
NCI-H2085	0.822	0.823	0.899	0.792	0.874	0.749	0.751	0.779	0.776	0.879	0.5	0.469	0.508	0.484	0.513	0.481	–	0.617	0.548	–
RERF-LC-KJ	0.81	0.799	0.824	0.873	0.806	0.851	0.842	0.809	0.697	0.831	1.1	1.07	1.1	1.14	0.837	0.897	0.944	0.857	0.919	1.06
NCI-H1355	1.05	0.997	0.987	1.15	1.05	0.942	1.01	0.992	0.876	0.929	0.417	0.397	0.308	0.412	0.461	0.416	0.435	0.557	0.401	0.404
NCI-H1650	0.888	1.02	0.974	1.01	1.02	0.833	1.07	0.773	0.941	0.875	0.373	0.31	0.351	0.337	0.488	0.577	0.702	0.661	0.601	0.365
PC-14	0.837	1.02	0.801	0.938	0.759	0.31	0.426	0.294	0.333	0.306	0.506	0.475	0.509	0.52	0.826	0.753	0.862	0.83	0.706	0.635
NCI-H1755	0.859	0.924	0.839	0.881	0.876	1.01	1.03	0.951	1.02	1.09	0.47	0.461	0.441	0.454	0.762	0.75	0.755	0.819	0.75	0.464
NCI-H1651	0.849	0.965	0.854	0.869	0.87	0.871	0.981	0.836	0.775	0.764	0.509	0.537	0.508	0.511	0.773	0.803	0.772	0.864	0.789	0.489
NCI-H661	0.993	1.07	–	1.05	0.906	0.627	0.601	0.537	0.434	0.567	0.404	0.4	0.416	0.408	0.614	0.549	0.531	0.599	0.546	0.415

— the supplement of paper PMC10307832
